Assay results reported in US20030092691A1 (priority 2001, published 2003).

Experiment: Study of solubility of micronized progesterone in various oils (concentration at saturation)
Format: physicochemical
Conditions: in refined olive oil; one hour stirring at room temperature, filtered 0.45 μm
Protocol: The saturated solutions were then prepared as follows: The saturated solutions in each oil were maintained for one hour with stirring at room temperature, and were then filtered on a nylon filter syringe with a diameter of 25 mm, at 0.45 μm.

CONCENTRATION AT SATURATION: 19560 µg/mL
SMILES: CC(=O)[C@H]1CC[C@H]2[C@@H]3CCC4=CC(=O)CC[C@]4(C)[C@H]3CC[C@]12C [Micronized progesterone, progesterone]
